“Also recorded” adds a separate entry of the source.
Key:
THP-1 cells = experiment: CCR2, FABP4, IL8 and PPARγ gene expression in PMA treated THP-1 cells (qRT-PCR); format: cell-based, human; settings: 200 ng/ml PMA, 300 μM BN or BN NP, 24 hours
Method: (§1) THP-1 (human leukemia monocyte cell line) cells were obtained from American Type Culture Collection (ATCC, Manassas, VA). THP-1 cells (200,000/well) were placed in six-well plates. After overnight incubation in serum free RPMI medium, cells were treated with 200 ng/ml of phorbol 12-myristate 13-acetate (PMA, Sigma-Aldrich, St. Louis, MO) to induce monocyte differentiation into macrophages. […] Cells were collected and RNA was isolated using miRNeasy kit (Qiagen).
(§2) PCR primers were purchased from Integrated DNA technologies (ITD, San Diego, USA). The miRNeasy Kit was used to isolate RNA (Qiagen, Germantown, MD, USA) according to the manufacturer's instructions. The iscript c-DNA synthesis kit (Bio-Rad, Hercules, CA, USA) was used to synthesize cDNA, and real-time qRT-PCR was done with the iTaq universal SYBR green super mix (Bio-Rad) using a C1000 thermal cycler with CFX96 real-time system (Bio-Rad). TBP-1 was used as a reference gene, and gene expression data was normalized to the respective control veins. The 2^−ΔΔct method was used to measure the fold change in gene expression.

Mcp-1 = Mcp-1 gene expression in PMA treated THP-1 cells (qRT-PCR); format: cell-based, human
Method: as §1, §2

Question: How did the CCR2 gene expression (THP-1 cells) turn out when `CCCCCCCCCCCCCC(=O)O[C@@H]1[C@@H](C)[C@@]2(O)[C@@H](C=C(CO)C[C@]3(O)C(=O)C(C)=C[C@@H]23)[C@@H]2C(C)(C)[C@]12OC(C)=O` [PMA, phorbol 12-myristate 13-acetate] was run?
Answer: significantly increased; also recorded: induced

Question: And the FABP4 gene expression (THP-1 cells)?
Answer: significantly increased; also recorded: induced

Question: And the IL8 gene expression (THP-1 cells)?
Answer: significantly increased; also recorded: induced

Question: And the PPARγ gene expression (THP-1 cells)?
Answer: significantly increased; also recorded: induced

Question: And the “average Mcp-1 gene expression” value (Mcp-1; 200 ng/ml PMA with or without 300 μM BN or BN NP, 24 hours, fold change)?
Answer: 9.77±1.58

Question: What about the “average increase of Mcp-1 gene expression” value (Mcp-1; PMA compared to NP C alone) of the same compound?
Answer: 859.13%
